Conditions: in water at 20° C.

Row | SMILES | Neutralizer Solubility in water [g/100 mL]
1 | CC(C)NC(C)C [DIPA, diisopropylamine] | 10
2 | CN1C(C)(C)CC(O)CC1(C)C [Example 4-OH-PMP, 4-hydroxy-1,2,2,6,6-pentamethylpiperidine] | 4.8

Source: patent US20230220224A1, “AQUEOUS DISPERSION AND IMAGE RECORDING METHOD” (FUJIFILM CORPORATION, priority 2020, published 2023)
